Laboratory results reported in patent US10231954B2, “Neurodegenerative therapies” (LYTIX BIOPHARMA AS, priority 2014, dated 2019).

Tests used:
Assay type in all cases: biochemical
[1] = target: JNK3 (Homo sapiens, UniProt P53779); assay: Kinase profiling JNK3; details: for residual kinase activity, JNK3: 100 micromolar inhibitor concentration, 100 is no change
Excerpt: (§1) Any value less that 25 is considered to be highly significant inhibition.

[2] = target: p38b MAPK (Homo sapiens, UniProt Q15759); assay: Kinase profiling p38b MAPK; details: for residual kinase activity, p38b MAPK: 100 micromolar inhibitor concentration, 100 is no change
Excerpt: as §1

[3] = target: T1, p38d MAPK (Homo sapiens, UniProt O15264); assay: Kinase profiling p38d MAPK; details: for residual kinase activity, p38d MAPK: 100 micromolar inhibitor concentration, 100 is no change
T1 sequence (O15264 1-365): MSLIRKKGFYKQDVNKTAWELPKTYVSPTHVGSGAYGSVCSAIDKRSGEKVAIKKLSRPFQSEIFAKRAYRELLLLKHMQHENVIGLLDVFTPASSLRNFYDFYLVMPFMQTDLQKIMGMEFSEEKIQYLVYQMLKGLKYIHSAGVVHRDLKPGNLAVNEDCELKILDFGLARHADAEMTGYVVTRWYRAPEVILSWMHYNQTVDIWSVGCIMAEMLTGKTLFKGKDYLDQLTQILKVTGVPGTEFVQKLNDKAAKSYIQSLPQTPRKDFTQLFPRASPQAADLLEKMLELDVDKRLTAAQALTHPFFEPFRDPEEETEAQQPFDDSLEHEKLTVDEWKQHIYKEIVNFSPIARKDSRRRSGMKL
Excerpt: as §1

[4] = target: RSK1 (Homo sapiens, UniProt Q15418); assay: Kinase profiling RSK1; details: for residual kinase activity, RSK1: 100 micromolar inhibitor concentration, 100 is no change
Excerpt: as §1

[5] = target: PKCa (Homo sapiens, UniProt P17252); assay: Kinase profiling PKCa; details: for residual kinase activity, PKCa: 100 micromolar inhibitor concentration, 100 is no change
Excerpt: as §1

[6] = target: T2, PKD1 (Homo sapiens, UniProt Q15139); assay: Kinase profiling PKD1; details: for residual kinase activity, PKD1: 100 micromolar inhibitor concentration, 100 is no change
T2 sequence (Q15139 1-912): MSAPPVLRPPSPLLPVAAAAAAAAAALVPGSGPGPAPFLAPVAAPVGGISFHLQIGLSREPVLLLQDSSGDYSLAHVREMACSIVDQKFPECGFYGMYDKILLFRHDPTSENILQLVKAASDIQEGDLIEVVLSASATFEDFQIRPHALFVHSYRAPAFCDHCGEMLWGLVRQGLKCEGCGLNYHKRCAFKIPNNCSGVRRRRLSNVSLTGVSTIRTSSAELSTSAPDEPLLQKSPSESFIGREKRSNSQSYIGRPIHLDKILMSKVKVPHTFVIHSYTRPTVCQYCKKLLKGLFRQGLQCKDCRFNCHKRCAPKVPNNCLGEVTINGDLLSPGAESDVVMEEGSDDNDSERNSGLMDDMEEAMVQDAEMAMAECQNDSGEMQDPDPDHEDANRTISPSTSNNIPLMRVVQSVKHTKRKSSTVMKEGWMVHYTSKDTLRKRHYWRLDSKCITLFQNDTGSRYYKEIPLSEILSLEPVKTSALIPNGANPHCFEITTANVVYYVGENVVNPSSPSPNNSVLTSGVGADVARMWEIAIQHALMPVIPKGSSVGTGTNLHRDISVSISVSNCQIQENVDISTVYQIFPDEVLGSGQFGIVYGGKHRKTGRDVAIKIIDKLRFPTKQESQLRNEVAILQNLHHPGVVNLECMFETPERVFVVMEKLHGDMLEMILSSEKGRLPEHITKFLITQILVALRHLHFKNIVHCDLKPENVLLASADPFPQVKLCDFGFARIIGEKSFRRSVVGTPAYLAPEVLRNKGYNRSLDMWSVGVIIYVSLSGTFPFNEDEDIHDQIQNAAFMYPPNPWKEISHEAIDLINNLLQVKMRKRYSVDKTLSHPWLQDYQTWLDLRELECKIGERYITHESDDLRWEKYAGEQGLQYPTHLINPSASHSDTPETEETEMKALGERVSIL
Excerpt: as §1

[7] = target: CHK2 (Homo sapiens, UniProt O96017); assay: Kinase profiling CHK2; details: for residual kinase activity, CHK2: 100 micromolar inhibitor concentration, 100 is no change
Excerpt: as §1

[8] = target: MARK3 (Homo sapiens, UniProt P27448); assay: Kinase profiling MARK3; details: for residual kinase activity, MARK3: 100 micromolar inhibitor concentration, 100 is no change
Excerpt: as §1

[9] = system: CK2; assay: Kinase profiling CK2
Excerpt: as §1

[10] = target: DYRK1A (Homo sapiens, UniProt Q13627); assay: DYRK 1A assay (kinase profiling); details: for residual kinase activity, DYRK1A: 100 micromolar inhibitor concentration, 100 is no change
Method: Assays are stopped by addition of 5 μl of 0.5 M (3%) orthophosphoric acid and then harvested onto P81 Unifilter plates with a wash buffer of 50 mM orthophosphoric acid.
as §1

[11] = target: T3, TBK1 (Homo sapiens, UniProt Q9UHD2); assay: Kinase profiling TBK1; details: for residual kinase activity, TBK1: 100 micromolar inhibitor concentration, 100 is no change
T3 sequence (Q9UHD2 1-729): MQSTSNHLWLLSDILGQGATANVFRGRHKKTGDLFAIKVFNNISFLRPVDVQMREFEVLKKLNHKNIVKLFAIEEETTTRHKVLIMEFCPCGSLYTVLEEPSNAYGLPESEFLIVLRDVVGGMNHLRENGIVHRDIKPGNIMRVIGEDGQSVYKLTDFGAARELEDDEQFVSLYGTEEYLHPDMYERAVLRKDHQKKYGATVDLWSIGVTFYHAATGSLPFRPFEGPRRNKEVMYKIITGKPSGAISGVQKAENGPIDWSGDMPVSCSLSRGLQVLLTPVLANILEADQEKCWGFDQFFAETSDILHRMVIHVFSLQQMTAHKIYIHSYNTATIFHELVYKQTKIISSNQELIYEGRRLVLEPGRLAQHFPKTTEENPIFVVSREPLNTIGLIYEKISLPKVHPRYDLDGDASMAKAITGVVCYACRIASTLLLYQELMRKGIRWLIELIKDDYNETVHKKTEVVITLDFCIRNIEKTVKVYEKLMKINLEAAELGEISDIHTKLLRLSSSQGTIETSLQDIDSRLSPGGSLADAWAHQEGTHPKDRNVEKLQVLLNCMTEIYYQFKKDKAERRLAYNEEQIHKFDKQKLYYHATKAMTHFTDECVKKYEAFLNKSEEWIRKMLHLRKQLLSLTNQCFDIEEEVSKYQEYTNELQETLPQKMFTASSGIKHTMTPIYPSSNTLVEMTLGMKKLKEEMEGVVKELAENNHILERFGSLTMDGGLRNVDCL
Excerpt: as §1

[12] = target: PIM1 (Homo sapiens, UniProt P11309); assay: Kinase profiling PIM1; details: for residual kinase activity, PIM1: 100 micromolar inhibitor concentration, 100 is no change
Excerpt: as §1

[13] = target: RIPK2 (Homo sapiens, UniProt O43353); assay: Kinase profiling RIPK2; details: for residual kinase activity, RIPK2: 100 micromolar inhibitor concentration, 100 is no change
Excerpt: as §1

[14] = target: TrkA (Homo sapiens, UniProt P04629); assay: Kinase profiling TrkA; details: for residual kinase activity, TrkA: 100 micromolar inhibitor concentration, 100 is no change
Excerpt: as §1

[15] = 100 micromolar inhibitor concentration, 100 is no change

Chain of CHK2 (O96017 whole entry, species assumed): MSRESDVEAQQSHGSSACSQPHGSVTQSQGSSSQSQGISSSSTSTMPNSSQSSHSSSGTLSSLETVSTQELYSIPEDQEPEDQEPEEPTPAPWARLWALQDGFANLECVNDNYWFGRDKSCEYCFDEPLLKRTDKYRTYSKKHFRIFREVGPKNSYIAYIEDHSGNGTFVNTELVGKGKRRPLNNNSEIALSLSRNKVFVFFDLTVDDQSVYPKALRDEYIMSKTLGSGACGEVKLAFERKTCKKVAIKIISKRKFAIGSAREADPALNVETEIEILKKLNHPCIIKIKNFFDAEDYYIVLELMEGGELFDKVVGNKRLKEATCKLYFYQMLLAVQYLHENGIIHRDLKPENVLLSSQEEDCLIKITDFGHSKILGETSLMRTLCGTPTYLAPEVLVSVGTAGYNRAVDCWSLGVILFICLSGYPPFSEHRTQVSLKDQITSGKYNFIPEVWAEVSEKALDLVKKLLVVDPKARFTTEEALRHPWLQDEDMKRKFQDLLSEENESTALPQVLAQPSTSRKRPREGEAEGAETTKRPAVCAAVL
Chain of RSK1 (Q15418 whole entry, species assumed): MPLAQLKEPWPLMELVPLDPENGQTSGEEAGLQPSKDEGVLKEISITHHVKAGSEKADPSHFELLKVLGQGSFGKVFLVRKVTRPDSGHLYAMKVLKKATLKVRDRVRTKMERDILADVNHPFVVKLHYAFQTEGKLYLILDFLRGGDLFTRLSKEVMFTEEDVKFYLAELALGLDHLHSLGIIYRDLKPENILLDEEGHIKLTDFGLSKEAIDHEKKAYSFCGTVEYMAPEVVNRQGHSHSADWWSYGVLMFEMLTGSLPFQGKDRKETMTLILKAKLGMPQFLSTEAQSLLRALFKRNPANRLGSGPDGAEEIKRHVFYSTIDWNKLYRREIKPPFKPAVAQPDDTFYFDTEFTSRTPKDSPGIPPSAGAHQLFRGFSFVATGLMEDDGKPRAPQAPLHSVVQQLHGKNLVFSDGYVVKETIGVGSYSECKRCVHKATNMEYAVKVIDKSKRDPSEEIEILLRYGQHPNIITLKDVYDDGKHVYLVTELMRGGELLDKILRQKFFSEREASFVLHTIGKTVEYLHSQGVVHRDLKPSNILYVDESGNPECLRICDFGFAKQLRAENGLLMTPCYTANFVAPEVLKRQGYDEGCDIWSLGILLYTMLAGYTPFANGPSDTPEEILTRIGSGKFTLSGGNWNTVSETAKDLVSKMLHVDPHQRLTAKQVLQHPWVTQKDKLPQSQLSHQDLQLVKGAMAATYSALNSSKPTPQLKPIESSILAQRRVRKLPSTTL
Chain of p38b MAPK (Q15759 whole entry): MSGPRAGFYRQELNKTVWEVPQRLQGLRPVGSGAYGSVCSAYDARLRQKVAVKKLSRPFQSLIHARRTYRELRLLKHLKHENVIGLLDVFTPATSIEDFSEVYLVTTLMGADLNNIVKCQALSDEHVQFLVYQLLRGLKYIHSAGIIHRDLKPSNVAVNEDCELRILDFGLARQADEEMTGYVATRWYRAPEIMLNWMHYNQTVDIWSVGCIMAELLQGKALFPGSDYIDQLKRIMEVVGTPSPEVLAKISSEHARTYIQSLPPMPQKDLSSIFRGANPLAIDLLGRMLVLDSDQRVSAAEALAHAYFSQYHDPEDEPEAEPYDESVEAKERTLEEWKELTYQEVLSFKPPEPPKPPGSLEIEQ
Chain of TrkA (P04629 33-796, species assumed): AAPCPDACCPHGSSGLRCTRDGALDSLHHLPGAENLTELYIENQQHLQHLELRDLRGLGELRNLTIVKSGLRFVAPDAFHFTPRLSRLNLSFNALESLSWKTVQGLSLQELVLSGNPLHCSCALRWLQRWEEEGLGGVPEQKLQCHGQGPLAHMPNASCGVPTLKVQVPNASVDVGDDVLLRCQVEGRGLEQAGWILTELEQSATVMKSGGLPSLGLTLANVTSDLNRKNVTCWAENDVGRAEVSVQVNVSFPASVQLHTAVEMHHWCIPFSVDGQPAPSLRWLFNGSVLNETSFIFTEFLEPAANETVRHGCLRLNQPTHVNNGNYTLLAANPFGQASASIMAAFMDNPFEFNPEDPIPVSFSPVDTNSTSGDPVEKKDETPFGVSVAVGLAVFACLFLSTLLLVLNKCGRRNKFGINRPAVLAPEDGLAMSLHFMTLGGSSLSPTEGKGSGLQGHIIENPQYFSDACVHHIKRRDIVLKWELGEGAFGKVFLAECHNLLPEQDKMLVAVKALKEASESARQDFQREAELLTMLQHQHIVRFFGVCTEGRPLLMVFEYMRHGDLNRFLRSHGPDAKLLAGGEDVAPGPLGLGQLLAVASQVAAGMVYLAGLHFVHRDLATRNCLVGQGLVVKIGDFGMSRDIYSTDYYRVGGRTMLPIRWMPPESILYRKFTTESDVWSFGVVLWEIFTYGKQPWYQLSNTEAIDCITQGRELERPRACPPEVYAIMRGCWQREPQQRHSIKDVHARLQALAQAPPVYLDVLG
Chain of MARK3 (P27448 whole entry, species assumed): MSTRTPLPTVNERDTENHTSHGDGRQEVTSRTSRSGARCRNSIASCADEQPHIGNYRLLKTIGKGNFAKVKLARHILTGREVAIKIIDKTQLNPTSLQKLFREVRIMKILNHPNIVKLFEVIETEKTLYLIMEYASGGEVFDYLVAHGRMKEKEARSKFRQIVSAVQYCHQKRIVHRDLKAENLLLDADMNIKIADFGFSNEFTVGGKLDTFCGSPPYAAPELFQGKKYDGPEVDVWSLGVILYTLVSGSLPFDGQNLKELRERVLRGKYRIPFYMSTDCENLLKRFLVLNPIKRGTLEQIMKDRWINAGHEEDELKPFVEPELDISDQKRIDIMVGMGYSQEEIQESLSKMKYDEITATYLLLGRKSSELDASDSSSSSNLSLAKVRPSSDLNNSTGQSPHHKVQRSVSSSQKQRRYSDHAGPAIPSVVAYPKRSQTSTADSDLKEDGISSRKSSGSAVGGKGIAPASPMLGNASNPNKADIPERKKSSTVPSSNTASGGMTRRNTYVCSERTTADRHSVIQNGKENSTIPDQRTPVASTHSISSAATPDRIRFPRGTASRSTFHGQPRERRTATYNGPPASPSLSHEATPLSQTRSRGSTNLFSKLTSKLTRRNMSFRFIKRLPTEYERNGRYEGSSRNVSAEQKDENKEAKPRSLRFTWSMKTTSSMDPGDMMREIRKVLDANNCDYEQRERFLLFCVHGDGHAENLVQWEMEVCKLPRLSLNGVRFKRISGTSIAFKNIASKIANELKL
Chain of RIPK2 (O43353 whole entry, species assumed): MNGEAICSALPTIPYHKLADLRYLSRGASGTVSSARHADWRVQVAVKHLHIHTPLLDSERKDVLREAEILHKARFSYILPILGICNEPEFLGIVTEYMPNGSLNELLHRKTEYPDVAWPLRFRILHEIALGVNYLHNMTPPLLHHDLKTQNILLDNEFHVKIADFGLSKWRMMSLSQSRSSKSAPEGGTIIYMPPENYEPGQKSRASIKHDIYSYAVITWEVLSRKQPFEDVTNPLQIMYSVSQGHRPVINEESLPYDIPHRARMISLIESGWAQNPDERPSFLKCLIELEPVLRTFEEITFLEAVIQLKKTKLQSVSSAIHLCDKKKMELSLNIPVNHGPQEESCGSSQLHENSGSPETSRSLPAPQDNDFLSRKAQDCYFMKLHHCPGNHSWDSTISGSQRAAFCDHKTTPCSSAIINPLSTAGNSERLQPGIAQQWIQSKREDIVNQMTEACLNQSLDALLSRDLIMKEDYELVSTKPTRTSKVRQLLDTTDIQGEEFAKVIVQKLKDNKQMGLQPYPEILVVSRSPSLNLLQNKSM
Chain of JNK3 (P53779 whole entry, species assumed): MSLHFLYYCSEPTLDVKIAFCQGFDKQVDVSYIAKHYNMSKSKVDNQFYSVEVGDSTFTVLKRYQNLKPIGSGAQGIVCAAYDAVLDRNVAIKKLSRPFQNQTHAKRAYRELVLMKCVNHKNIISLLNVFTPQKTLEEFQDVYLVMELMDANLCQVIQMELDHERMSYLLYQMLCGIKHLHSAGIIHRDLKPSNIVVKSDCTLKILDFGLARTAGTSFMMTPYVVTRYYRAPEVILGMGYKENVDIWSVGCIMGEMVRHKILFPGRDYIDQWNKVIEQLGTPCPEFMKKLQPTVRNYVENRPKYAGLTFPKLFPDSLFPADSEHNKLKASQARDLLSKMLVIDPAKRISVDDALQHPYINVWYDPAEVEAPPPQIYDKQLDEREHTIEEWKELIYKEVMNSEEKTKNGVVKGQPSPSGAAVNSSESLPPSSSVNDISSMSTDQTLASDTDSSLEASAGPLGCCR

Structure (SMILES): O=C(Nc1nc2cc(O)ccc2s1)c1ccccn1 [Compound 03-13]
- residual kinase activity, JNK3 [1]: 67
- residual kinase activity, p38b MAPK [2]: 91
- residual kinase activity, p38d MAPK [3]: 99
- residual kinase activity, RSK1 [4]: 70
- residual kinase activity, PKCa [5]: 112
- residual kinase activity, PKD1 [6]: 76
- residual kinase activity, CHK2 [7]: 75
- residual kinase activity, MARK3 [8]: 68
- residual kinase activity, CK2 [9, 15]: 78
- residual kinase activity, DYRK1A [10]: 25
- residual kinase activity, TBK1 [11]: 73
- residual kinase activity, PIM1 [12]: 39
- residual kinase activity, RIPK2 [13]: 27
- residual kinase activity, TrkA [14]: 57

Structure (SMILES): CC(=O)Nc1nc2cc(C)ccc2s1 [Compound 03-76]
- residual kinase activity, JNK3 [1]: 76
- residual kinase activity, p38b MAPK [2]: 83
- residual kinase activity, p38d MAPK [3]: 85
- residual kinase activity, RSK1 [4]: 78
- residual kinase activity, PKCa [5]: 94
- residual kinase activity, PKD1 [6]: 89
- residual kinase activity, CHK2 [7]: 65
- residual kinase activity, MARK3 [8]: 71
- residual kinase activity, CK2 [9, 15]: 75
- residual kinase activity, DYRK1A [10]: 23
- residual kinase activity, TBK1 [11]: 78
- residual kinase activity, PIM1 [12]: 21
- residual kinase activity, RIPK2 [13]: 60
- residual kinase activity, TrkA [14]: 56

Structure (SMILES): O=C(Nc1nc2ccc(O)cc2s1)c1ccncc1 [Compound 08-42]
- residual kinase activity, JNK3 [1]: 65
- residual kinase activity, p38b MAPK [2]: 86
- residual kinase activity, p38d MAPK [3]: 65
- residual kinase activity, RSK1 [4]: 47
- residual kinase activity, PKCa [5]: 81
- residual kinase activity, PKD1 [6]: 63
- residual kinase activity, CHK2 [7]: 22
- residual kinase activity, MARK3 [8]: 68
- residual kinase activity, CK2 [9, 15]: 50
- residual kinase activity, DYRK1A [10]: 15
- residual kinase activity, TBK1 [11]: 61
- residual kinase activity, PIM1 [12]: 59
- residual kinase activity, RIPK2 [13]: 30
- residual kinase activity, TrkA [14]: 81

Structure (SMILES): O=C(Nc1nc2ccc(O)cc2s1)c1ccccn1 [Compound 03-12]
- residual kinase activity, JNK3 [1]: 70
- residual kinase activity, p38b MAPK [2]: 105
- residual kinase activity, p38d MAPK [3]: 77
- residual kinase activity, RSK1 [4]: 67
- residual kinase activity, PKCa [5]: 101
- residual kinase activity, PKD1 [6]: 70
- residual kinase activity, CHK2 [7]: 23
- residual kinase activity, MARK3 [8]: 79
- residual kinase activity, CK2 [9, 15]: 57
- residual kinase activity, DYRK1A [10]: 33
- residual kinase activity, TBK1 [11]: 68
- residual kinase activity, PIM1 [12]: 51
- residual kinase activity, RIPK2 [13]: 29
- residual kinase activity, TrkA [14]: 49

Structure (SMILES): CC(=O)Nc1cccc(NC(=O)c2nc3ccc(O)cc3s2)c1 [Compound 03-07, N-(3-acetamidophenyl)-6-hydroxybenzo[d]thiazole-2-carboxamide]
- remaining activity at 100 µM ([1]; 100 micromolar inhibitor, 100 = no change, read-out: residual kinase activity, JNK3): 50%
- remaining activity at 100 µM ([2]; 100 micromolar inhibitor, 100 = no change, read-out: residual kinase activity, p38b MAPK): 96%
- remaining activity at 100 µM ([3]; 100 micromolar inhibitor, 100 = no change, read-out: residual kinase activity, p38d MAPK): 81%
- remaining activity at 100 µM ([4]; 100 micromolar inhibitor, 100 = no change, read-out: residual kinase activity, RSK1): 48%
- remaining activity at 100 µM ([5]; 100 micromolar inhibitor, 100 = no change, read-out: residual kinase activity, PKCa): 81%
- remaining activity at 100 µM ([6]; 100 micromolar inhibitor, 100 = no change, read-out: residual kinase activity, PKD1): 61%
- remaining activity at 100 µM ([7]; 100 micromolar inhibitor, 100 = no change, read-out: residual kinase activity, CHK2): 23%
- remaining activity at 100 µM ([8]; 100 micromolar inhibitor, 100 = no change, read-out: residual kinase activity, MARK3): 72%
- residual kinase activity, CK2 ([9]; 100 micromolar inhibitor, 100 = no change): 35
- remaining activity at 100 µM ([10]; 100 micromolar inhibitor, 100 = no change, read-out: residual kinase activity, DYRK1A): 30%
- remaining activity at 100 µM ([11]; 100 micromolar inhibitor, 100 = no change, read-out: residual kinase activity, TBK1): 92%
- remaining activity at 100 µM ([12]; 100 micromolar inhibitor, 100 = no change, read-out: residual kinase activity, PIM1): 25%
- remaining activity at 100 µM ([13]; 100 micromolar inhibitor, 100 = no change, read-out: residual kinase activity, RIPK2): 18%
- remaining activity at 100 µM ([14]; 100 micromolar inhibitor, 100 = no change, read-out: residual kinase activity, TrkA): 59%

Structure (SMILES): O=C(Nc1nc2ccc(O)cc2s1)c1ccccc1 [Compound 03-60]
- residual kinase activity, JNK3 [1]: 48
- residual kinase activity, p38b MAPK [2]: 76
- residual kinase activity, p38d MAPK [3]: 75
- residual kinase activity, RSK1 [4]: 28
- residual kinase activity, PKCa [5]: 97
- residual kinase activity, PKD1 [6]: 47
- residual kinase activity, CHK2 [7]: 5
- residual kinase activity, MARK3 [8]: 33
- residual kinase activity, CK2 [9, 15]: 16
- residual kinase activity, DYRK1A [10]: 2
- residual kinase activity, TBK1 [11]: 36
- residual kinase activity, PIM1 [12]: 35
- residual kinase activity, RIPK2 [13]: 12
- residual kinase activity, TrkA [14]: 23

Structure (SMILES): CC(=O)Nc1nc2ccccc2s1 [Compound 03-32]
- residual kinase activity, JNK3 [1]: 66
- residual kinase activity, p38b MAPK [2]: 107
- residual kinase activity, p38d MAPK [3]: 80
- residual kinase activity, RSK1 [4]: 86
- residual kinase activity, PKCa [5]: 104
- residual kinase activity, PKD1 [6]: 105
- residual kinase activity, CHK2 [7]: 87
- residual kinase activity, MARK3 [8]: 85
- residual kinase activity, CK2 [9, 15]: 96
- residual kinase activity, DYRK1A [10]: 43
- residual kinase activity, TBK1 [11]: 88
- residual kinase activity, PIM1 [12]: 79
- residual kinase activity, RIPK2 [13]: 70
- residual kinase activity, TrkA [14]: 77
